The text below walks through data of US20250170121A1, “ISOQUINOLINONE COMPOUND, AND PREPARATION METHOD AND USE THEREFOR” (FUDAN UNIVERSITY, priority 2022, published 2025).

The target in one assay is FABP3 (Homo sapiens, UniProt P05413). The experiment in a line: FABP3 inhibition rate, ANS substrate competition method (illustrated by the FABP4 system). Type of assay: binding. As to conditions: compound 25 μM. The source says:
(§1) Considering that inhibition of FABP3 would cause myocardial function damage and bring potential safety issues, we tested the inhibitory activity of some compounds on FABP3. The activity test is illustrated by the example of the FABP4 activity test system as below.
(§2) Experimental principle and method: Once the free non-covalent fluorescent probe ANS binds to FABP4, the ANS fluorescence intensity will increase and its spectrum will be blue shifted. In this experiment, the inhibitory effect of the compound on FABP4 was evaluated by measuring the change in the ANS fluorescence signal value. For the FABP4 inhibitory activity test, the ANS substrate competition method was used, and we used the method of Kane and Bernlohr (E. Marr, M. Tardie, M. Carty, T. Brown Phillips, I. K. Wang, W. Soeller, X. Qiu, G. Karam, Expression, purification, crystallization and structure of human adipocyte lipid-binding protein (aP2). Acta Crystallogr., Sect. F: Struct. Biol. Cryst. Commun. 62 (2006) 1058-1060.). Human FABP4 with a His tag was expressed in the BL21 (DE3) strain and then purified using a Ni column with a His tag to generate the protein. In the detection system, the concentration of 1,8-ANS substrate was 10 μM, the final concentration of FABP4 was 10 μM, and then the compound prepared by the present invention was added at the required concentration for incubation for 3 minutes, and finally the fluorescence signal was detected at an excitation wavelength (EX) of 370 nm/emission wavelength (EM) of 470 nm. The inhibition rate (%) of the test sample on FABP4 was calculated according to the fluorescence absorption value of the system. The inhibition rate (%) was calculated according to the following equation: […]
(§3) FX represents the fluorescence value (fluorescence, F) of the system measured in the presence of compound x;
(§4) Fbackground represents the fluorescence value of the fluorescent substrate ANS;
(§5) F0% represents the fluorescence value of the system when the inhibition rate is 0%, that is, when no compound was added.

For a further assay, the target named is FABP5 (Homo sapiens, UniProt Q01469). The experiment in a line: FABP5 inhibition rate, ANS substrate competition method (illustrated by the FABP4 system). Type of assay: binding. Conditions: compound 25 μM.
Another assay has as its target T1, Human FABP4 (Homo sapiens, UniProt P15090).
T1 construct: His tag; made in house; host or cells: E. coli BL21 (DE3)
Nature of the assay: FABP4 inhibition rate, ANS substrate competition (fluorescence) method. Type of assay: binding. Conditions: compound 25 μM; 10 μM 1,8-ANS, 10 μM FABP4.
Excerpt: as §1, §2, §3, §4, §5

Assay [1] has as its system MCP-1 secretion in THP-1 cells. The experiment in a line: MCP-1 secretion in LPS-stimulated THP-1 monocyte-derived macrophages (ELISA). Conditions: 25 μM, 10 μM and 5 μM; 18 h incubation, 100 ng/ml LPS 6 h; FIG. 2. Type of assay: cell-based. The source says: In FIG. 2A to FIG. 2C, the vertical axis represents the amount (ng) of MCP-1 contained in each mg of cell protein: in FIG. 2D, the vertical axis represents the relative concentration of MCP-1 (ng/mg cellular protein % LPS). Wherein, Control represents blank control treatment, LPS represents lipopolysaccharide treatment, BMS309403 represents inhibitor positive control treatment, RO6806051 (RO) represents lead compound treatment, and Y2, Y3, Y15, Y16 and Y18 represent treatments with compounds Y2, Y3, Y15, Y16 and Y18 prepared in the present invention, respectively.
(§6) Effects of the compounds on monocyte chemoattractant factor-1 (MCP-1) and interleukin-6 (IL-6) in THP-1 monocyte-derived macrophage.
(§7) First, monocytic cell line THP-1 in logarithmic growth phase was plated on a 96-well plate at a cell density of 5*10^5/ml; then 100 nM phorbol myristate ester (PMA) was added to induce the cells for 24 hours to differentiate into macrophages; then the cells were washed once or twice with phosphate buffered saline (PBS), and different concentrations of compounds (5, 10, 25 μM) were added for incubation for 18 hours; finally, after 6 hours of stimulation with 100 ng/ml lipopolysaccharide (LPS), the supernatant was collected and diluted to a certain multiple and the contents of MCP-1 and IL-6 were detected using enzyme-linked immunosorbent assay (ELISA), and cell protein was collected and the protein concentration was measured by BCA method for calibration.
A general note: ELISA stands for enzyme-linked immunosorbent assay.

The subject of assay [2] is IL-6 secretion in THP-1 cells. Nature of the assay: IL-6 secretion in LPS-stimulated THP-1 monocyte-derived macrophages (ELISA). Type of assay: cell-based. Conditions: FIG. 3.
Excerpt: In FIG. 3, the vertical axis represents the amount (ng) of MCP-1 contained in each mg of cell protein. Wherein, Control (Con) represents blank control treatment, LPS represents lipopolysaccharide treatment, BMS309403 represents inhibitor positive control treatment, RO6806051 (RO) represents lead compound treatment, and Y2, Y3, Y15, Y16 and Y18 represent treatments with compounds Y2, Y3, Y15, Y16 and Y18 prepared in the present invention, respectively.
as §6, §7

T1 sequence (P15090 whole entry): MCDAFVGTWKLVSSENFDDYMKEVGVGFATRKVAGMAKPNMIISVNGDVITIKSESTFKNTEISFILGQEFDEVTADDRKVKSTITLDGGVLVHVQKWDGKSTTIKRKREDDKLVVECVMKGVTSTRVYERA
FABP3, sequence (P05413 whole entry): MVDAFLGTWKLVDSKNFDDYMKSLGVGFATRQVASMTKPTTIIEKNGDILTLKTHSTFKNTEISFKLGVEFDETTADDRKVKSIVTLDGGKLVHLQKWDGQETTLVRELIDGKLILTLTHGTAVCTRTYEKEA
FABP5, sequence (Q01469 whole entry): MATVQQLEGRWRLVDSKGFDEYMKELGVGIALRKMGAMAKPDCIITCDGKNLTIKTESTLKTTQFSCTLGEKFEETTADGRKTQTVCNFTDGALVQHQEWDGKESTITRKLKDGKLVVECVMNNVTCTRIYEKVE

The inhibition is the change of the read-out against control, counted positive when it falls. Higher therefore signals a response far below the control. `O=C(O)c1c(-c2ccccc2)c2cc(Cl)ccc2c(=O)n1C1CCCCC1` [Compound Y1, 6-Chloro-2-cyclohexyl-1-oxo-4-phenyl-1,2-dihydroisoquinoline-3-carboxylic Acid]: the inhibition at 25 µM at FABP3 was found to be 29%; on FABP5, 50%; at Human FABP4, 70%.
As to `O=C(O)c1c(-c2ccccc2)c2cc(Cl)ccc2c(=O)n1C1CCOCC1` [Compound Y4, 6-Chloro-1-oxo-4-phenyl-2-(tetrahydro-2H-pyran-4-yl)-1,2-dihydroisoquinoline-3-carboxylic Acid], the inhibition at 25 µM at FABP3 was 14%; at FABP5, 50%; on Human FABP4, 71%.
In the same order, the values of `O=C(O)c1c(-c2ccccc2)c2cc(Cl)ccc2c(=O)n1C1CC1` [Compound Y5, 6-Chloro-2-cyclopropyl-1-oxo-4-phenyl-1,2-dihydroisoquinoline-3-carboxylic Acid] are 82%, 43% and 88%.
As for `O=C(O)c1c(-c2ccccc2)c2cc(Cl)ccc2c(=O)n1C1CCC1` [Compound Y6, 6-Chloro-2-cyclobutyl-1-oxo-4-phenyl-1,2-dihydroisoquinoline-3-carboxylic Acid], the inhibition at 25 µM was 81% at FABP3, 60% at FABP5 and 94% at Human FABP4.
In the same order, the values of `O=C(O)c1c(-c2ccccc2)c2cc(Cl)ccc2c(=O)n1C1CCCCCC1` [Compound Y7, 6-Chloro-2-cycloheptyl-1-oxo-4-phenyl-1,2-dihydroisoquinoline-3-carboxylic Acid] are 18%, 57% and 78%.
Take `O=C(O)c1c(-c2ccccc2)c2cc(Cl)ccc2c(=O)n1-c1ccc(Cl)cc1` [Compound Y8, 6-Chloro-2-(4-chlorophenyl)-1-oxo-4-phenyl-1,2-dihydroisoquinoline-3-carboxylic Acid]: the inhibition at 25 µM came out at 1% on FABP5 and 35% at Human FABP4.
For the molecule `O=C(O)c1c(-c2ccccc2)c2cc(Cl)ccc2c(=O)n1N1CCCCC1` [Compound Y9, 6-Chloro-1-oxo-4-phenyl-2-(piperidin-1-yl)-1,2-dihydroisoquinoline-3-carboxylic Acid], the inhibition at 25 µM at FABP3 worked out at 59%; on FABP5, 72%; on Human FABP4 it was 95%.
Turning to `O=C(O)c1c(-c2ccccc2)c2cc(Br)ccc2c(=O)n1C1CCCC1` [Compound Y10, 6-Bromo-2-cyclopentyl-1-oxo-4-phenyl-1,2-dihydroisoquinoline-3-carboxylic Acid], the inhibition at 25 µM was 57% on FABP3, 58% on FABP5 and 95% at Human FABP4.
For `O=C(O)c1c(-c2ccccc2)c2cc(Cl)c(Cl)cc2c(=O)n1C1CCCC1` [Compound Y11, 6,7-Dichloro-2-cyclopentyl-1-oxo-4-phenyl-1,2-dihydroisoquinoline-3-carboxylic Acid], the inhibition at 25 µM is 48% at FABP3, 41% at FABP5 and 77% at Human FABP4.
For the molecule `O=C(O)c1c(-c2ccccc2)c2ccccc2c(=O)n1C1CCCC1` [Compound Y12, 2-Cyclopentyl-1-oxo-4-phenyl-1,2-dihydroisoquinoline-3-carboxylic Acid], the results for the inhibition at 25 µM at FABP5 and on Human FABP4 were 25% and 58%, respectively.
As to `O=C(O)c1c(-c2ccccc2)c2cc(F)ccc2c(=O)n1C1CCCC1` [Compound Y13, 2-Cyclopentyl-6-fluoro-1-oxo-4-phenyl-1,2-dihydroisoquinoline-3-carboxylic Acid], the inhibition at 25 µM at FABP3 turned out to be 11%; on FABP5 it was 43%; on Human FABP4, 89%.
Turning to `Cc1ccc2c(=O)n(C3CCCC3)c(C(=O)O)c(-c3ccccc3)c2c1` [Compound Y14, 2-Cyclopentyl-6-methyl-1-oxo-4-phenyl-1,2-dihydroisoquinoline-3-carboxylic Acid], the inhibition at 25 µM is 26% at FABP3, 55% on FABP5 and 90% on Human FABP4.
Consider `O=C(O)c1c(-c2ccc(F)cc2)c2cc(Cl)ccc2c(=O)n1C1CCCC1` [Compound Y15, 6-Chloro-2-cyclopentyl-4-(4-fluorophenyl)-1-oxo-1,2-dihydroisoquinoline-3-carboxylic Acid], for which the results for the inhibition at 25 µM at FABP3, on FABP5 and on Human FABP4 were 27%, 52% and 91%, respectively. Moreover, the “secretion of inflammatory factor MCP-1 in THP-1 mononuclear macrophages” value in assay [1] is given as “could reduce the secretion of inflammatory factor MCP-1”. Also, the “IL-6 secretion, tendency (no concentration stated)” value in assay [2] is on record as “tendency to reduce IL-6 secretion but with no statistical difference”.
For `O=C(O)c1c(-c2ccc(O)cc2)c2cc(Cl)ccc2c(=O)n1C1CCCC1` [Compound Y16, 6-Chloro-2-cyclopentyl-4-(4-hydroxyphenyl)-1-oxo-1,2-dihydroisoquinoline-3-carboxylic Acid], the inhibition at 25 µM on FABP3 was found to be 28%; on FABP5, 52%; at Human FABP4, 92%. For the same molecule, the “secretion of inflammatory factor MCP-1 in THP-1 mononuclear macrophages” value in assay [1] is reported as “could reduce the secretion of inflammatory factor MCP-1”.
For `O=C(O)c1c(-c2ccc(CO)cc2)c2cc(Cl)ccc2c(=O)n1C1CCCC1` [Compound Y17, 6-Chloro-2-cyclopentyl-4-(4-(hydroxymethyl)phenyl)-1-oxo-1,2-dihydroisoquinoline-3-carboxylic Acid], the inhibition at 25 µM was 14% on FABP5 and 1% on Human FABP4.
Regarding `O=C(O)c1c(-c2ccc(C(F)(F)F)cc2)c2cc(Cl)ccc2c(=O)n1C1CCCC1` [Compound Y19, 6-Chloro-2-cyclopentyl-1-oxo-4-(4-(trifluoromethyl)phenyl)-1,2-dihydroisoquinoline-3-carboxylic Acid], the inhibition at 25 µM on FABP3 was 3%; on FABP5, 22%; on Human FABP4, 14%.
On to `O=C(O)c1c(-c2ccc3c(c2)CCO3)c2cc(Cl)ccc2c(=O)n1C1CCCC1` [Compound Y20, 6-Chloro-2-cyclopentyl-4-(2,3-dihydrobenzofuran-5-yl)-1-oxo-1,2-dihydroisoquinoline-3-carboxylic Acid], for which the figures for the inhibition at 25 µM at FABP5 and on Human FABP4 were 25% and 32%, respectively.
Take `O=C(O)c1c(-c2cccnc2)c2cc(Cl)ccc2c(=O)n1C1CCCC1` [Compound Y21, 6-Chloro-2-cyclopentyl-1-oxo-4-(pyridin-3-yl)-1,2-dihydroisoquinoline-3-carboxylic Acid]: the values for the inhibition at 25 µM at FABP3, at FABP5 and at Human FABP4 were 9%, 31% and 76%, respectively.
For the molecule `Cc1nn(C)cc1-c1c(C(=O)O)n(C2CCCC2)c(=O)c2ccc(Cl)cc12` [Compound Y22, 6-Chloro-2-cyclopentyl-4-(1,3-dimethyl-1H-pyrazol-4-yl)-1-oxo-1,2-dihydroisoquinoline-3-carboxylic Acid], the inhibition at 25 µM on FABP3 amounted to 1%; on FABP5 it was 36%; at Human FABP4, 36%.
